The test addresses T1, ALK5 kinase (Homo sapiens, UniProt P36897).
T1 construct: GST; purchased Thermo Fisher Scientific Solutions
T1 sequence (P36897 34-503): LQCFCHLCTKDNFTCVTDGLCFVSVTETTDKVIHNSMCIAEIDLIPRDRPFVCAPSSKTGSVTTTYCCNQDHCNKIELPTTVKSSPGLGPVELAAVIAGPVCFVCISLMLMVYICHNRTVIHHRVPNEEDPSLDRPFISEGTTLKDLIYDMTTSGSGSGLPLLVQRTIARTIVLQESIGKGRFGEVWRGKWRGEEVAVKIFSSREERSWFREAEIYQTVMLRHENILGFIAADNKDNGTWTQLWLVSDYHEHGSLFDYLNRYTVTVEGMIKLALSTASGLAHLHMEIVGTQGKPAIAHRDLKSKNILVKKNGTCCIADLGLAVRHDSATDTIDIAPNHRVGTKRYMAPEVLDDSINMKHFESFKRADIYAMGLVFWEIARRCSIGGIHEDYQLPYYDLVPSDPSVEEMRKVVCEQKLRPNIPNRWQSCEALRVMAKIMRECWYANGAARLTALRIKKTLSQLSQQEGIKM
The experiment in a line: Activity inhibition test on ALK5 enzyme (LanthaScreen Eu binding kinase assay). The settings on record: kinase tracer 178, 60 minutes at room temperature. The protocol:
For each of the compounds obtained in Examples 1 to 227, inhibitory activity against ALK5 kinase was measured.
For this, a LanthaScreen Eu binding kinase assay method was used, and ALK5 kinase, a kinase buffer, a kinase tracer 178, and a LanthaScreen Eu-GST binding antibody were all purchased from Thermo Fisher Scientific Solutions. Each of the compounds was made into a 10 mM DMSO solution, and diluted by 1/10 to a concentration of 1 μM to 0.0001 μM with an aqueous solution containing 4% DMSO. The test was performed in 384 well plates (well polystyrene low volume round-bottomed plates). First, 5 μL of the diluted compound solution was added, then 5 μL of the kinase/antibody mixture solution was introduced thereto, and 5 μL of the tracer was introduced thereto. Herein, these were added to each well so that the final kinase concentration became 5 nM, the final Eu-GST binding antibody concentration 2 nM, and the kinase tracer 178 concentration 10 nM, and the result was reacted in a stirrer for 60 minutes at room temperature. Then a fluorescence value was measured using a fluorescence meter (molecular device) ([…], 665 nm emission filter). Herein, as for the degree of compound activity to inhibit the kinase reaction, a phosphorylate rate was calculated from 0% to 100% with respect to a control group according to the protocol included in the kit, and a 50% inhibitory concentration (IC50) value was calculated by obtaining the x-axis concentration in the region where 50% activity was inhibited.

In the case of “5-([1,2,4]triazolo[1,5-α]pyridin-6-yl)-N-(1-cyclopropyl sulfonyl)-1H-pyrazol-4-yl)-1-(6-methylpyridin-2-yl)-1H-pyrazole-3-carboxyamide [Example 163]”, the IC50 (as a rule, the concentration that gives 50% inhibition) amounted to 4.6 nM.
Regarding “5-([1,2,4]triazolo[1,5-α]pyridin-6-yl)-N-(4-((1,1-dioxidotetrahydrothiophen-3-yl)amino)phenyl)-1-(6-methylpyridin-2-yl)-1H-pyrazole-3-carboxyamide [Example 109]”, the IC50 came to 9.7 nM.
With `COc1ccc(NC(=O)c2cc(-c3ccc4ncsc4c3)n(-c3cccc(C)n3)n2)cc1` [Example 1, 5-(benzo[d]thiazol-6-yl)-N-(4-methoxyphenyl)-1-(6-methylpyridin-2-yl)-1H-pyrazole-3-carboxyamide], the IC50 turned out to be 5 nM.
On to `CCOc1ccc(NC(=O)c2cc(-c3ccc4ncsc4c3)n(-c3cccc(C)n3)n2)cc1` [Example 2, 5-(benzo[d]thiazol-6-yl)-N-(4-ethoxyphenyl)-1-(6-methylpyridin-2-yl)-1H-pyrazole-3-carboxyamide], for which the half-maximal inhibitory concentration (IC50) is 4.7 nM.
Then `Cc1cccc(-n2nc(C(=O)Nc3ccc(OCC4CC4)cc3)cc2-c2ccc3ncsc3c2)n1` [Example 3, 5-(benzo[d]thiazol-6-yl)-N-(4-(cyclopropylmethoxy)phenyl)-1-(6-methylpyridin-2-yl)-1H-pyrazole-3-carboxyamide], with 12 nM; and `COCCOc1ccc(NC(=O)c2cc(-c3ccc4ncsc4c3)n(-c3cccc(C)n3)n2)cc1` [Example 4, 5-(benzo[d]thiazol-6-yl)-N-(4-(2-methoxyethoxy)phenyl)-1-(6-methylpyridin-2-yl)-1H-pyrazole-3-carboxyamide], with 4.4 nM.
In the case of `Cc1cccc(-n2nc(C(=O)Nc3ccc(OC(F)(F)F)cc3)cc2-c2ccc3ncsc3c2)n1` [Example 5, 5-(benzo[d]thiazol-6-yl)-1-(6-methylpyridin-2-yl)-N-(4-(trifluoromethoxy)phenyl)-1H-pyrazole-3-carboxyamide], the IC50 is 10 to 100 nM.
As for `Cc1cccc(-n2nc(C(=O)Nc3ccc(OCc4ccccc4)cc3)cc2-c2ccc3ncsc3c2)n1` [Example 6, 5-(benzo[d]thiazol-6-yl)-N-(4-(benzyloxy)phenyl)-1-(6-methylpyridin-2-yl)-1H-pyrazole-3-carboxyamide], the IC50 worked out at 11 nM.
Then `Cc1cccc(-n2nc(C(=O)Nc3ccc4c(c3)OCO4)cc2-c2ccc3ncsc3c2)n1` [Example 7, N-(benzo[d][1,3]dioxol-5-yl)-5-(benzo[d]thiazol-6-yl)-1-(6-methylpyridin-2-yl)-1-H-pyrazole-3-carboxyamide], with < 10 nM; and `COc1cc(NC(=O)c2cc(-c3ccc4ncsc4c3)n(-c3cccc(C)n3)n2)ccc1F` [Example 8, 5-(benzo[d]thiazol-6-yl)-N-(4-fluoro-3-methoxyphenyl)-1-(6-methylpyridin-2-yl)-1H-pyrazole-3-carboxyamide], with 4.7 nM; and `COc1ccc(NC(=O)c2cc(-c3ccc4ncsc4c3)n(-c3cccc(C)n3)n2)c(F)c1` [Example 9, 5-(benzo[d]thiazol-6-yl)-N-(2-fluoro-4-methoxyphenyl)-1-(6-methylpyridin-2-yl)-1H-pyrazole-3-carboxyamide], with 19 nM.
`COc1ccc(NC(=O)c2cc(-c3ccc4ncsc4c3)n(-c3cccc(C)n3)n2)cc1F` [Example 10, 5-(benzo[d]thiazol-6-yl)-N-(3-fluoro-4-methoxyphenyl)-1-(6-methylpyridin-2-yl)-1H-pyrazole-3-carboxyamide] registered an IC50 of 10 nM.
`Cc1cccc(-n2nc(C(=O)Nc3cccc(N)c3)cc2-c2ccc3ncsc3c2)n1` [Example 11, 5-(benzo[d]thiazol-6-yl)-N-(3-aminophenyl)-1-(6-methylpyridin-2-yl)-1H-pyrazole-3-carboxyamide]: the IC50 is 2.2 nM.
`CNc1cccc(NC(=O)c2cc(-c3ccc4ncsc4c3)n(-c3cccc(C)n3)n2)c1` [Example 12, 5-(benzo[d]thiazol-6-yl)-N-(3-(methylamino)phenyl)-1-(6-methylpyridin-2-yl)-1H-pyrazole-3-carboxyamide] came in with an IC50 of 6.1 nM.
Regarding `Cc1cccc(-n2nc(C(=O)Nc3ccc(N(C)C)cc3)cc2-c2ccc3ncsc3c2)n1` [Example 13, 5-(benzo[d]thiazol-6-yl)-N-(4-(dimethylamino)phenyl)-1-(6-methylpyridin-2-yl)-1H-pyrazole-3-carboxyamide], the 50% inhibitory concentration (IC50) lay in the range of 10 to 100 nM.
Molecule `Cc1cccc(-n2nc(C(=O)Nc3ccc([N+](=O)[O-])cc3)cc2-c2ccc3ncsc3c2)n1` [Example 14, 5-(benzo[d]thiazol-6-yl)-1-(6-methylpyridin-2-yl)-N-(4-nitrophenyl)-1H-pyrazole-3-carboxyamide] came in with an IC50 of 17 nM.
Molecule `Cc1cccc(-n2nc(C(=O)Nc3ccc(N(C)CCN(C)C)cc3)cc2-c2ccc3ncsc3c2)n1` [Example 15, 5-(benzo[d]thiazol-6-yl)-N-(4-((2-(dimethylamino)ethyl)(methyl)amino)phenyl)-1-(6-methylpyridin-2-yl)-1H-pyrazole-3-carboxyamide] gave an IC50 of 6.4 nM.
In the case of `Cc1cccc(-n2nc(C(=O)Nc3ccc(N4CC[C@H](N(C)C)C4)cc3)cc2-c2ccc3ncsc3c2)n1` [Example 16, 5-(benzo[d]thiazol-6-yl)-N-(4-(3-(dimethylamino)pyrrolidin-1-yl)phenyl)-1-(6-methylpyridin-2-yl)-1H-pyrazole-3-carboxyamide], the IC50 worked out at 2.3 nM.
Then `Cc1cccc(-n2nc(C(=O)Nc3ccc(N4CC5CCCNC5C4)c(Cl)c3)cc2-c2ccc3ncsc3c2)n1` (centres unmarked) [Example 17, 5-(benzo[d]thiazol-6-yl)-N-(3-chloro-4-(octahydro-6H-pyrrolo[3,4-b]pyridin-6-yl)phenyl)-1-(6-methylpyridin-2-yl)-1H-pyrazole-3-carboxyamide], with 14 nM.
As for `Cc1cccc(-n2nc(C(=O)Nc3ccccc3)cc2-c2ccc3ncsc3c2)n1` [Example 18, 5-(benzo[d]thiazol-6-yl)-1-(6-methylpyridin-2-yl)-N-phenyl-1H-pyrazole-3-carboxyamide], the IC50 lay within 10 to 100 nM.
Consider `Cc1cccc(NC(=O)c2cc(-c3ccc4ncsc4c3)n(-c3cccc(C)n3)n2)c1` [Example 19, 5-(benzo[d]thiazol-6-yl)-N-(3-tolyl)-1-(6-methylpyridin-2-yl)-1H-pyrazole-3-carboxyamide], for which the IC50 lay in the range of 10 to 100 nM.
The figure for `C=Cc1cccc(NC(=O)c2cc(-c3ccc4ncsc4c3)n(-c3cccc(C)n3)n2)c1` [Example 20, 5-(benzo[d]thiazol-6-yl)-1-(6-methylpyridin-2-yl)-N-(3-vinylphenyl)-1H-pyrazole-3-carboxyamide] is 10 to 100 nM; for `Cc1cccc(-n2nc(C(=O)Nc3cccc(C(F)(F)F)c3)cc2-c2ccc3ncsc3c2)n1` [Example 21, 5-(benzo[d]thiazol-6-yl)-N-(3-(trifluoromethyl)phenyl)-1-(6-methylpyridin-2-yl)-1H-pyrazole-3-carboxyamide] it is ~100 nM; for `Cc1cccc(-n2nc(C(=O)Nc3cccc(C#N)c3)cc2-c2ccc3ncsc3c2)n1` [Example 22] it is 10 to 100 nM.
Then `CC(=O)c1cccc(NC(=O)c2cc(-c3ccc4ncsc4c3)n(-c3cccc(C)n3)n2)c1` [Example 23, 5-(benzo[d]thiazol-6-yl)-N-(3-acetylphenyl)-1-(6-methylpyridin-2-yl)-1H-pyrazole-3-carboxyamide], with ~10 nM; and `CCOC(=O)c1cccc(NC(=O)c2cc(-c3ccc4ncsc4c3)n(-c3cccc(C)n3)n2)c1` [Example 24, ethyl 3-(5-(benzo[d]thiazol-6-yl)-1-(6-methylpyridin-2-yl)-1H-pyrazole-3-carboxyamido)benzoate], with ~100 nM; and `CNC(=O)c1ccc(NC(=O)c2cc(-c3ccc4ncsc4c3)n(-c3cccc(C)n3)n2)cc1` [Example 25, 5-(benzo[d]thiazol-6-yl)-N-(4-(methylcarbamoyl)phenyl)-1-(6-methylpyridin-2-yl)-1H-pyrazole-3-carboxyamide], with < 10 nM.
`CC(=O)Nc1ccc(NC(=O)c2cc(-c3ccc4ncsc4c3)n(-c3cccc(C)n3)n2)cc1` [Example 26, 5-(benzo[d]thiazol-6-yl)-N-(4-acetamidophenyl)-1-(6-methylpyridin-2-yl)-1H-pyrazole-3-carboxyamide] displayed an IC50 of 10 to 100 nM.
The molecule `Cc1cccc(-n2nc(C(=O)Nc3ccccc3F)cc2-c2ccc3ncsc3c2)n1` [Example 27, 5-(benzo[d]thiazol-6-yl)-N-(2-fluorophenyl)-1-(6-methylpyridin-2-yl)-1H-pyrazole-3-carboxyamide] showed an IC50 of 6.2 nM.

Source of the values: patent US10954232B2, “Pyrazole derivative as ALK5 inhibitor and uses thereof” (HANMI PHARMACEUTICAL CO., LTD., priority 2016, dated 2021).
